Reference: PubChem BioAssay (NCI)
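Test compounds were applied to cells in 96-well plates for 48 hours at 5 doses. TGI denotes the concentration required for complete inhibition of growth.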

Assays:
Experiment in all cases: NCI anticancer screen, dose series, 48 h
KM12 colon = system: KM12 colon
IGROV1 ovarian = system: IGROV1 ovarian
HCT-15 colon = system: HCT-15 colon
U251 CNS = system: U251 CNS
LOX IMVI melanoma = system: LOX IMVI melanoma
SK-MEL-28 melanoma = system: SK-MEL-28 melanoma
MALME-3M melanoma = system: MALME-3M melanoma
786-0 renal = system: 786-0 renal
HOP-92 NSCLC = system: HOP-92 NSCLC
PC-3 prostate = system: PC-3 prostate
NCI-H226 lung = system: NCI-H226 lung
NCI-H522 lung = system: NCI-H522 lung
UACC-257 melanoma = system: UACC-257 melanoma
SN12C renal = system: SN12C renal
EKVX NSCLC = system: EKVX NSCLC
HCT-116 colon = system: HCT-116 colon
ACHN renal = system: ACHN renal
NCI-H23 lung = system: NCI-H23 lung
SF-295 CNS = system: SF-295 CNS
OVCAR-8 ovarian = system: OVCAR-8 ovarian
DU-145 prostate = system: DU-145 prostate
BT-549 breast = system: BT-549 breast
M14 melanoma = system: M14 melanoma
SNB-75 CNS = system: SNB-75 CNS
SR leukemia = system: SR leukemia
MOLT-4 leukemia = system: MOLT-4 leukemia
OVCAR-5 ovarian = system: OVCAR-5 ovarian
OVCAR-3 ovarian = system: OVCAR-3 ovarian
SF-268 CNS = system: SF-268 CNS
COLO 205 colon = system: COLO 205 colon
NCI/ADR-RES ovarian = system: NCI/ADR-RES ovarian
TK-10 renal = system: TK-10 renal
A549 NSCLC = system: A549 NSCLC
MDA-N = system: MDA-N
SNB-19 CNS = system: SNB-19 CNS
SK-MEL-2 melanoma = system: SK-MEL-2 melanoma
MDA-MB-231 breast = system: MDA-MB-231 breast
K-562 leukemia = system: K-562 leukemia
RXF 393 renal = system: RXF 393 renal
MCF7 breast = system: MCF7 breast
SF-539 CNS = system: SF-539 CNS
NCI-H460 lung = system: NCI-H460 lung
SK-OV-3 ovarian = system: SK-OV-3 ovarian
SW-620 colon = system: SW-620 colon
RPMI-8226 leukemia = system: RPMI-8226 leukemia
CCRF-CEM leukemia = system: CCRF-CEM leukemia
UACC-62 melanoma = system: UACC-62 melanoma
OVCAR-4 ovarian = system: OVCAR-4 ovarian
HOP-62 NSCLC = system: HOP-62 NSCLC
UO-31 renal = system: UO-31 renal
HCC-2998 colon = system: HCC-2998 colon
SK-MEL-5 melanoma = system: SK-MEL-5 melanoma
CAKI-1 renal = system: CAKI-1 renal
HT29 colon = system: HT29 colon
MDA-MB-435 = system: MDA-MB-435
T-47D breast = system: T-47D breast
A498 renal = system: A498 renal

With `COC(=O)/C=C\COCC1C2CCC(=O)C21` (stereo unspecified) the TGI (KM12 colon) was > 25 µM, the TGI (IGROV1 ovarian) was > 25 µM and the TGI (HCT-15 colon) was > 25 µM. The TGI (U251 CNS) was > 25 µM, the TGI (LOX IMVI melanoma) was > 25 µM and the TGI (SK-MEL-28 melanoma) was > 25 µM. The TGI (MALME-3M melanoma) was 13.3 µM, the TGI (786-0 renal) was > 25 µM and the TGI (HOP-92 NSCLC) was 10.6 µM. The TGI (PC-3 prostate) was > 25 µM, the TGI (NCI-H226 lung) was > 25 µM and the TGI (NCI-H522 lung) was 7.83 µM. For the same compound, the TGI (UACC-257 melanoma) was > 25 µM, the TGI (SN12C renal) was > 25 µM and the TGI (EKVX NSCLC) was > 25 µM. For the same compound, the TGI (HCT-116 colon) was > 25 µM, the TGI (ACHN renal) was > 25 µM and the TGI (NCI-H23 lung) was > 25 µM. The TGI (SF-295 CNS) was > 25 µM, the TGI (OVCAR-8 ovarian) was > 25 µM and the TGI (DU-145 prostate) was > 25 µM. For the same compound, the TGI (BT-549 breast) was > 25 µM, the TGI (M14 melanoma) was > 25 µM and the TGI (SNB-75 CNS) was > 25 µM. For the same compound, the TGI (SR leukemia) was > 25 µM, the TGI (MOLT-4 leukemia) was 20.7 µM and the TGI (OVCAR-5 ovarian) was > 25 µM. The TGI (OVCAR-3 ovarian) was > 25 µM, the TGI (SF-268 CNS) was > 25 µM and the TGI (COLO 205 colon) was > 25 µM. For the same compound, the TGI (NCI/ADR-RES ovarian) was > 25 µM, the TGI (TK-10 renal) was > 25 µM and the TGI (A549 NSCLC) was > 25 µM. For the same compound, the TGI (MDA-N) was > 25 µM, the TGI (SNB-19 CNS) was > 25 µM and the TGI (SK-MEL-2 melanoma) was > 25 µM. The TGI (MDA-MB-231 breast) was > 25 µM, the TGI (K-562 leukemia) was > 25 µM and the TGI (RXF 393 renal) was > 25 µM. The TGI (MCF7 breast) was > 25 µM, the TGI (SF-539 CNS) was 19.4 µM and the TGI (NCI-H460 lung) was 24.3 µM. For the same compound, the TGI (SK-OV-3 ovarian) was > 25 µM, the TGI (SW-620 colon) was > 25 µM and the TGI (RPMI-8226 leukemia) was > 25 µM. For the same compound, the TGI (CCRF-CEM leukemia) was 16.2 µM, the TGI (UACC-62 melanoma) was > 25 µM and the TGI (OVCAR-4 ovarian) was > 25 µM. For the same compound, the TGI (HOP-62 NSCLC) was > 25 µM, the TGI (UO-31 renal) was > 25 µM and the TGI (HCC-2998 colon) was > 25 µM. For the same compound, the TGI (SK-MEL-5 melanoma) was > 25 µM, the TGI (CAKI-1 renal) was 1.29 µM and the TGI (HT29 colon) was > 25 µM. For the same compound, the TGI (MDA-MB-435) was > 25 µM.
`Cc1ccc(S(=O)(=O)N2CCC(=O)c3cc(Br)ccc32)cc1` was tested, and the TGI (KM12 colon) was > 26.1 µM, the TGI (IGROV1 ovarian) was > 100 µM and the TGI (HCT-15 colon) was > 100 µM. For the same compound, the TGI (U251 CNS) was > 35 µM, the TGI (LOX IMVI melanoma) was > 64.6 µM and the TGI (SK-MEL-28 melanoma) was > 100 µM. For the same compound, the TGI (MALME-3M melanoma) was > 100 µM, the TGI (786-0 renal) was > 67.2 µM and the TGI (HOP-92 NSCLC) was 98.9 µM. For the same compound, the TGI (PC-3 prostate) was 75.4 µM, the TGI (NCI-H226 lung) was > 100 µM and the TGI (NCI-H522 lung) was > 55.6 µM. For the same compound, the TGI (UACC-257 melanoma) was 46.6 µM, the TGI (SN12C renal) was > 100 µM and the TGI (EKVX NSCLC) was 96.3 µM. The TGI (HCT-116 colon) was > 100 µM, the TGI (ACHN renal) was > 100 µM and the TGI (NCI-H23 lung) was > 93.9 µM. For the same compound, the TGI (SF-295 CNS) was 55.7 µM, the TGI (OVCAR-8 ovarian) was > 100 µM and the TGI (DU-145 prostate) was > 100 µM. The TGI (BT-549 breast) was > 88.9 µM, the TGI (M14 melanoma) was > 67 µM and the TGI (SNB-75 CNS) was 59.6 µM. For the same compound, the TGI (SR leukemia) was > 100 µM, the TGI (MOLT-4 leukemia) was > 26.6 µM and the TGI (OVCAR-5 ovarian) was > 100 µM. The TGI (OVCAR-3 ovarian) was 61 µM, the TGI (SF-268 CNS) was > 94.8 µM and the TGI (COLO 205 colon) was 31.3 µM. It also gave a TGI (NCI/ADR-RES ovarian) of 58.9 µM, a TGI (TK-10 renal) of 54.4 µM and a TGI (A549 NSCLC) of 32.1 µM. For the same compound, the TGI (MDA-N) was 13.3 µM, the TGI (SNB-19 CNS) was 99.4 µM and the TGI (SK-MEL-2 melanoma) was 36.3 µM. For the same compound, the TGI (MDA-MB-231 breast) was > 54.5 µM, the TGI (K-562 leukemia) was > 30.9 µM and the TGI (RXF 393 renal) was 53.6 µM. The TGI (MCF7 breast) was > 49.1 µM, the TGI (SF-539 CNS) was 25.3 µM and the TGI (NCI-H460 lung) was > 55.4 µM. The TGI (SK-OV-3 ovarian) was 63.2 µM, the TGI (SW-620 colon) was > 100 µM and the TGI (RPMI-8226 leukemia) was 76.4 µM. The TGI (T-47D breast) was > 100 µM, the TGI (UACC-62 melanoma) was 18.3 µM and the TGI (OVCAR-4 ovarian) was > 73.9 µM. The TGI (HOP-62 NSCLC) was 59.7 µM, the TGI (A498 renal) was 30.1 µM and the TGI (UO-31 renal) was > 100 µM. For the same compound, the TGI (HCC-2998 colon) was > 54.1 µM, the TGI (SK-MEL-5 melanoma) was 21.7 µM and the TGI (CAKI-1 renal) was > 100 µM. The TGI (HT29 colon) was > 100 µM and the TGI (MDA-MB-435) was 4.98 µM.
